Measurements from US20020025918A1, “Methods of using helical peptides in plants” (priority 1987, published 2002).
Converted amounts (≈) assume the structure as drawn. Residues, ends and D or L forms follow the SMILES beside them.

Key:
Format in all cases: cell-based
[1] = test system: Klebsiella pheumoniae; assay: MIC/MBC, fresh isolates; conditions: fresh isolate Klebsiella pheumoniae
From the text: (§1) The procedure of example 2 was followed using a variety of freshly isolated bacterial samples.

[2] = test system: Enterobacteria Cloacae; assay: MIC/MBC, fresh isolates; conditions: fresh isolate Enterobacteria Cloacae
From the text: as §1

[3] = test system: Pseudomonas aeruginosa-2; assay: MIC/MBC, fresh isolates; conditions: fresh isolate Pseudomonas aeruginosa-2
From the text: as §1

[4] = test system: Pseudomonas aeruginosa-3; assay: MIC/MBC, fresh isolates; conditions: fresh isolate Pseudomonas aeruginosa-3
From the text: as §1

[5] = test system: Acinetobacter Cal Anit; assay: MIC/MBC, fresh isolates; conditions: fresh isolate Acinetobacter Cal Anit
From the text: as §1

[6] = test system: Klebsiella pheumoniae-2; assay: MIC/MBC, fresh isolates; conditions: fresh isolate Klebsiella pheumoniae-2
From the text: as §1

[7] = test system: Enterococcus-3; assay: MIC/MBC, fresh isolates; conditions: fresh isolate Enterococcus-3
From the text: as §1

[8] = test system: Staph aureus; assay: MIC/MBC, fresh isolates; conditions: fresh isolate Staph aureus
From the text: as §1

[9] = test system: Staph Coag neg; assay: MIC/MBC, fresh isolates; conditions: fresh isolate Staph Coag neg
From the text: as §1

[10] = test system: Enterococcus-1; assay: MIC/MBC, fresh isolates; conditions: fresh isolate Enterococcus-1
From the text: as §1

[11] = test system: Citrobacter Diversus; assay: MIC/MBC, fresh isolates; conditions: fresh isolate Citrobacter Diversus
From the text: as §1

[12] = test system: Staph auerus-MR-1; assay: MIC/MBC, fresh isolates; conditions: fresh isolate Staph auerus-MR-1
From the text: as §1

[13] = test system: Citrobacter Freundii; assay: MIC/MBC, fresh isolates; conditions: fresh isolate Citrobacter Freundii
From the text: as §1

[14] = test system: Enterococcus-2; assay: MIC/MBC, fresh isolates; conditions: fresh isolate Enterococcus-2
From the text: as §1

[15] = test system: Serratia Marcescens; assay: MIC/MBC, fresh isolates; conditions: fresh isolate Serratia Marcescens
From the text: as §1

[16] = test system: Staph aureus-MR-2; assay: MIC/MBC, fresh isolates; conditions: fresh isolate Staph aureus-MR-2
From the text: as §1

[17] = test system: Pseudomonas aeruginosa-1; assay: MIC/MBC, fresh isolates; conditions: fresh isolate Pseudomonas aeruginosa-1
From the text: as §1

[18] = test system: Eschera Coli; assay: MIC/MBC, fresh isolates; conditions: fresh isolate Eschera Coli
From the text: as §1

[19] = test system: Morganella morganil; assay: MIC/MBC, fresh isolates; conditions: fresh isolate Morganella morganil
From the text: as §1

[20] = test system: Human mononuclear leukocytes; assay: 3H-thymidine uptake in WBC (proliferation)
Description: Human mononuclear leukocytes were isolated from whole blood in the following manner. Blood was collected in vacutainer tubes containing EDTA, and was then diluted with an equal valume of calcium and magnesium-free PBS and layered over Histopaque resin (GIBCO). The tubes were centrifuged for 30 minutes at 25° C. and 450× g. The plasma and platelets above the banded layer of cells in the resulting gradient were removed and discarded. The banded white blood cells were removed to fresh test tubes, washed 3 times with PBS, and resuspended in RPMI medium containing 10% fetal bovine serum (FBS), mercaptoethanol, and penicillin and streptomycin as antibiotics. The cells were then counted and resuspended to a final concentration of 3×10^6 cells/ml.
To each well of a 96 well flat-bottomed microtiter plate was aded 100 μl of cells (3×10^5 cells). Treatment groups were set in quadruplicate samples. The appropriate concentration of test peptide and/or the mitogen hytohemaglutinate (PHA), was added in a total volume of 100 μl of medium to the test wells. The plates were then incubated at 37° C. and 5% CO2 for a duration of 72 hours. At the end of the incubation period, 1 μCi of 3H-thymidine in 1 μl TRIS-HCI, PH8 was added to each well, and the plates incubated an additional 18 hours.
Cellular DNA was harvested onto glass fiber filters using a semi-automatic cell harvester. The glass filters were then placed into vials containing scintillation fluid, and the samples were counted in a scintillation counter. The uptake of 3H-thymidine is an indiator of cell proliferation, thus the higher the number of counts in the sample, the greater the proliferative activity of the cells. The results in Table XI indicate that low dose of the synthetic peptides of this invention stimulate cell growth.

In the case of CC(C)C[C@H](NC(=O)[C@H](CCCCN)NC(=O)[C@H](CCCCN)NC(=O)[C@H](C)NC(=O)[C@H](CC(C)C)NC(=O)[C@H](CCCCN)NC(=O)[C@H](C)NC(=O)[C@H](CC(C)C)NC(=O)[C@H](CCCCN)NC(=O)[C@H](CCCCN)NC(=O)[C@H](C)NC(=O)[C@H](CC(C)C)NC(=O)[C@H](CCCCN)NC(=O)[C@H](CCCCN)NC(=O)[C@H](CC(C)C)NC(=O)[C@H](CCCCN)NC(=O)[C@H](CCCCN)NC(=O)[C@H](C)NC(=O)[C@H](CC(C)C)NC(=O)[C@H](CCCCN)NC(=O)[C@H](CCCCN)NC(=O)[C@H](C)NC(=O)[C@@H](N)Cc1ccccc1)C(N)=O [Anubis-2] (H-FAKKLAKKLKKLAKKLAKLAKKL-NH2), the MBC [1] is reported as 6.4 µM (≈ 16.7 µg/mL), the MIC [1] is reported as 3.2 µM (≈ 8.35 µg/mL) and the MBC [2] is reported as 12.8 µM (≈ 33.4 µg/mL). It also gave an MIC [2] of 6.4 µM (≈ 16.7 µg/mL), an MBC [3] of 6.4 µM (≈ 16.7 µg/mL) and an MIC [3] of 3.2 µM (≈ 8.35 µg/mL). For the same molecule, the MBC [4] was 51.2 µM (≈ 134 µg/mL), the MIC [4] was 6.4 µM (≈ 16.7 µg/mL) and the MBC [5] was 3.2 µM (≈ 8.35 µg/mL). For the same molecule, the MIC [5] was 3.2 µM (≈ 8.35 µg/mL), the MBC [6] was 25.6 µM (≈ 66.8 µg/mL) and the MIC [6] was 6.4 µM (≈ 16.7 µg/mL). The MIC [7] was 51.2 µM (≈ 134 µg/mL), the MBC [8] was 51.2 µM (≈ 134 µg/mL) and the MIC [8] was 6.4 µM (≈ 16.7 µg/mL). The MBC [9] was 3.2 µM (≈ 8.35 µg/mL), the MIC [9] was 1.6 µM (≈ 4.17 µg/mL) and the MBC [10] was 3.2 µM (≈ 8.35 µg/mL). The MIC [10] was 1.6 µM (≈ 4.17 µg/mL), the MBC [11] was 6.4 µM (≈ 16.7 µg/mL) and the MIC [11] was 3.2 µM (≈ 8.35 µg/mL). The MIC [12] was 51.2 µM (≈ 134 µg/mL), the MBC [13] was 6.4 µM (≈ 16.7 µg/mL) and the MIC [13] was 3.2 µM (≈ 8.35 µg/mL). For the same molecule, the MIC [14] was 51.2 µM (≈ 134 µg/mL), the MIC [15] was 51.2 µM (≈ 134 µg/mL) and the MBC [16] was 25.6 µM (≈ 66.8 µg/mL). It also gave an MIC [16] of 12.8 µM (≈ 33.4 µg/mL), an MBC [17] of 25.6 µM (≈ 66.8 µg/mL) and an MIC [17] of 6.4 µM (≈ 16.7 µg/mL). For the same molecule, the MBC [18] was 12.8 µM (≈ 33.4 µg/mL), the MIC [18] was 6.4 µM (≈ 16.7 µg/mL) and the MIC [19] was 51.2 µM (≈ 134 µg/mL). The “3H-Thymidine Uptake in WBC, % of Control” value ([20]; peptide 10 μM, PHA 0 mg) was 149%, the “3H-Thymidine Uptake in WBC, % of Control” value ([20]; peptide 10 μM, PHA 0.5 mg) was 290% and the “3H-Thymidine Uptake in WBC, % of Control” value ([20]; peptide 10 μM, PHA 5.0 mg) was 120%. For the same molecule, the “3H-Thymidine Uptake in WBC, % of Control” value ([20]; peptide 25 μM, PHA 0 mg) was 46%, the “3H-Thymidine Uptake in WBC, % of Control” value ([20]; peptide 25 μM, PHA 0.5 mg) was 393% and the “3H-Thymidine Uptake in WBC, % of Control” value ([20]; peptide 25 μM, PHA 5.0 mg) was 108%. The “3H-Thymidine Uptake in WBC, % of Control” value ([20]; peptide 50 μM, PHA 0 mg) was 19%, the “3H-Thymidine Uptake in WBC, % of Control” value ([20]; peptide 50 μM, PHA 0.5 mg) was 4% and the “3H-Thymidine Uptake in WBC, % of Control” value ([20]; peptide 50 μM, PHA 5.0 mg) was 1%. For the same molecule, the “3H-Thymidine Uptake in WBC, % of Control” value ([20]; peptide 100 μM, PHA 0 mg) was 26%, the “3H-Thymidine Uptake in WBC, % of Control” value ([20]; peptide 100 μM, PHA 0.5 mg) was 5% and the “3H-Thymidine Uptake in WBC, % of Control” value ([20]; peptide 100 μM, PHA 5.0 mg) was 0%.
